Data as given in patent US20250170139A1, “AZASETRON FOR THE TREATMENT OF SUDDEN SENSORINEURAL HEARING LOSS” (SENSORION, priority 2022, published 2025).

Assays:
[1] = tested on: subjects suffering from sudden sensorineural hearing loss (SSNHL); test: Phase 2b/3 study: change in pure tone audiometry (PTA) from baseline in affected ear; assay type: in vivo, human
Protocol: (§1) A randomized, double-blind, placebo-controlled, parallel-group phase 2b/3 study was conducted with the aim to assess efficacy and safety of (R)-azasetron in subjects suffering from sudden sensorineural hearing loss. Treatment was administered for 4 weeks (i.e., 28 days) and the study was concluded with an 8-week follow-up at day 84.
(§2) Subjects were included in the study if they presented with sudden sensorineural hearing loss (SSNHL) and met the following criteria: • male or female, • aged at least 18 years old, • subjects with unilateral idiopathic SSNHL or unilateral/bilateral acute acoustic trauma leading to SSNHL defined by both: • at least one hearing threshold of 50 dB or more amongst the 3 most affected contiguous frequencies on pure tone audiometric air conduction testing performed 24 hours or less prior to first study drug intake, and • mean hearing loss of 30 dB or more, averaged across the 3 most affected contiguous frequencies on pure tone audiometric air conduction testing performed 24 hours or less prior to first study treatment, compared with the unaffected contralateral ear or reference values from a pre-existing audiogram (dated less than 2 years) • subjects with sudden hearing loss with onset within 96 hours prior to first study drug intake.
As indicated above, hearing loss was determined with pure tone audiometry (PTA) or pure tone audiometric testing, in particular with pure tone audiometric air conduction testing.
In the present study, pure tone air- and bone-conduction hearing thresholds were determined for each ear (best ear at first) at 0.25, 0.5, 1, 2, 3, 4, 6, and 8 kHz for air conduction and at 0.5, 1, 2, 3, 4 kHz for bone conduction, using the descending method of limits (modified Hughson Westlake procedure as follows: initial descent towards threshold is accomplished in 10-dB steps. Beginning with the first nonresponse, level is increased by 5-dB for each non-response and decreased by 10-dB after each correct detection response). The hearing threshold was defined as the lowest audible level, measured twice out of three presentations to the subject.
The baseline pure tone audiometry test was defined as the last test performed at site within 24 hours prior to the first study drug administration. The PTA was expressed as the average of the hearing threshold (in dB) of the 3 most affected contiguous test frequencies (air conduction). Therefore, a higher PTA corresponds to a higher hearing threshold and thus to a poorer hearing. Conversely, a lower PTA corresponds to a lower hearing threshold and thus to a better hearing.
The hearing loss was defined as the difference between the PTA expressed as the average of the hearing threshold (in dB) at the 3 most affected contiguous test frequencies (air pure tone average) and the corresponding PTA expressed as the average hearing threshold of the contralateral ear or values from a pre-existing audiogram (dated less than 2 years) for the same frequencies (mandatory for bilateral acute acoustic trauma). The contiguous frequencies used to determine the PTA at baseline remained fixed for all subsequent evaluations. In case of bilateral acute acoustic trauma leading to sudden sensorineural hearing loss, the most affected ear according to the inclusion criteria was considered for the analysis. If both ears were equally affected, the right ear was considered.
134 subjects were assessed for eligibility according to the criteria listed above. […]

[2] = tested on: subjects suffering from sudden sensorineural hearing loss (SSNHL); test: Phase 2b/3 study: speech discrimination test, change in word recognition score (WRS) from baseline; assay type: in vivo, human; conditions: SENS-401 29 mg/BID
Protocol: as §1, §2
134 subjects were assessed for eligibility according to the criteria listed above. 115 subjects were randomized with a ratio 1:1:1 in the three following groups (i.e., treatment arms): • 38 subjects were included in the group administered for 28 days (i.e., 4 weeks) with placebo, • 38 subjects were included in the group administered for 28 days (i.e., 4 weeks) with a “low” dose of (R)-azasetron, defined as a total daily dose of 58 mg of (R)-azasetron (corresponding to a daily dose of 40 mg free base equivalent); and • 39 subjects were included in the group administered for 28 days (i.e., 4 weeks) with a “high” dose of (R)-azasetron, defined as a total daily dose of 87 mg of (R)-azasetron (corresponding to a daily dose of 60 mg free base equivalent).
Subjects were administered placebo or (R)-azasetron (also designated as SENS-401) for 28 days (i.e., 4 weeks). (R)-azasetron was administered orally twice a day either at a dose of 29 mg/BID (bis in die) or at a dose of 43.5 mg/BID (corresponding to a total daily dose of 40 mg and 60 mg free base equivalent, respectively).
Subjects included in the study were monitored with a first visit at day −4 to day 0 (screening), followed by a visit at day 1 (D1-randomization and inclusion day), day 7 (D7, ±2 days), day 14 (D14, ±2 days), day 28 (D28±3 days−end of treatment), and day 84 (D84±3 days-follow-up visit marking the end of study). Monitoring included audiometric tests (PTA), speech audiometry, numerical rating scales and questionnaires. Additionally, subjects included in the study were closely monitored for adverse events throughout the study.
Additionally, the efficacy of SENS-401 was also assessed by conducting speech audiometry, in particular by conducting a speech discrimination test (also known as word recognition test) to determine a word recognition score (WRS).
Speech discrimination or word recognition is the ability to repeat correctly an open set of monosyllabic words at supra threshold intensity (for example at 60 dB or at 80 dB). The word recognition score (WRS) is thus the percentage of test words correctly repeated by the subject. The test is administered in a quiet room without any competing noise. […]

[3] = day 28, SENS-401 high 43.5 mg/BID, subpopulation PTA at baseline ≥80 dB (idiopathic SSNHL, corticoids)
[4] = day 28, SENS-401 high 43.5 mg/BID, subpopulation PTA at baseline ≥90 dB (idiopathic SSNHL, corticoids)
[5] = day 28, SENS-401 low 29 mg/BID (40 mg/day free base equivalent), ITT overall study population, idiopathic SSNHL who received corticoids
[6] = day 28, SENS-401 low 29 mg/BID, subpopulation PTA at baseline ≥80 dB & initial frequency range ≤2000 Hz (idiopathic SSNHL, corticoids)
[7] = day 84, SENS-401 high 43.5 mg/BID (60 mg/day free base equivalent), overall study population, idiopathic SSNHL who received corticoids
[8] = day 84, SENS-401 high 43.5 mg/BID, subpopulation PTA at baseline ≥80 dB (idiopathic SSNHL, corticoids)
[9] = day 84, SENS-401 high 43.5 mg/BID, subpopulation PTA at baseline ≥90 dB (idiopathic SSNHL, corticoids)
[10] = day 84, SENS-401 high 43.5 mg/BID, subpopulation initial hearing loss ≥91 dB (ASHA Profound; idiopathic SSNHL, corticoids)
[11] = day 84, SENS-401 low 29 mg/BID (40 mg/day free base equivalent), ITT overall study population
[12] = day 84, SENS-401 low 29 mg/BID (40 mg/day free base equivalent), ITT overall study population, idiopathic SSNHL who received corticoids
[13] = day 84, SENS-401 low 29 mg/BID, subpopulation PTA at baseline ≥80 dB & initial frequency range ≤2000 Hz (idiopathic SSNHL, corticoids)
[14] = day 84, SENS-401 low 29 mg/BID, subpopulation initial frequency range ≤2000 Hz (of overall study population)
[15] = day 84, SENS-401 low 29 mg/BID, subpopulation initial hearing loss ≥91 dB (ASHA Profound; idiopathic SSNHL, corticoids)
[16] = day 84, SENS-401 low 29 mg/BID, subpopulation vertigo at baseline (idiopathic SSNHL, corticoids)

SMILES: CN1C(=O)COc2c(C(=O)N[C@H]3CN4CCC3CC4)cc(Cl)cc21 [SENS-401, (R)-azasetron besylate]
- ΔPTA SENS-401 vs placebo ([1]; day 28, SENS-401 29 mg/BID (40 mg/day free base equivalent), subpopulation PTA at baseline ≥80 dB (idiopathic SSNHL, corticoids), in dB): −15.2188
- ΔPTA SENS-401 vs placebo ([1]; day 28, SENS-401 29 mg/BID (40 mg/day free base equivalent), subpopulation PTA at baseline ≥90 dB (idiopathic SSNHL, corticoids), in dB): −13.9239
- ΔPTA SENS-401 vs placebo ([1]; day 28, SENS-401 29 mg/BID, subpopulation hearing loss at baseline ≥91 dB (idiopathic SSNHL, corticoids)): −19.8922 dB
- ΔPTA SENS-401 vs placebo ([1]; day 28, SENS-401 29 mg/BID, subpopulation vertigo at baseline (idiopathic SSNHL, corticoids), in dB): −14.0995
- ΔPTA SENS-401 vs placebo ([1]; day 28, SENS-401 43.5 mg/BID, subpopulation hearing loss at baseline ≥91 dB (idiopathic SSNHL, corticoids), in dB): −14.8893
- Mean change in PTA from baseline ([1]; day 28, SENS-401 high 43.5 mg/BID oral (60 mg/day free base equivalent) 28 days, ITT overall study population, idiopathic SSNHL who received corticoids): −41.8636 dB
- Mean change in PTA from baseline [1, 3]: −54.4635 dB
- ΔPTA SENS-401 vs placebo [1, 3]: −17.7765 dB
- Mean change in PTA from baseline [1, 4]: −53.6800 dB
- ΔPTA SENS-401 vs placebo [1, 4]: −23.2680 dB
- Mean change in PTA from baseline [1, 5]: −42.0761 dB
- ΔPTA SENS-401 vs placebo [1, 5]: −4.1236 dB
- Mean change in PTA from baseline [1, 6]: −59.0918 dB
- ΔPTA SENS-401 vs placebo [1, 6]: −21.7623 dB
- ΔPTA SENS-401 vs placebo ([1]; day 84, SENS-401 29 mg/BID (40 mg/day free base equivalent), subpopulation PTA at baseline ≥80 dB (idiopathic SSNHL, corticoids), in dB): −19.4991
- ΔPTA SENS-401 vs placebo ([1]; day 84, SENS-401 29 mg/BID (40 mg/day free base equivalent), subpopulation PTA at baseline ≥90 dB (idiopathic SSNHL, corticoids), in dB): −19.0242
- Mean change in PTA from baseline [1, 7]: −46.3161 dB
- ΔPTA SENS-401 vs placebo [1, 7]: −9.0984 dB
- Mean change in PTA from baseline [1, 8]: −61.2123 dB
- ΔPTA SENS-401 vs placebo [1, 8]: −25.6472 dB
- Mean change in PTA from baseline [1, 9]: −57.7398 dB
- ΔPTA SENS-401 vs placebo [1, 9]: −28.6788 dB
- Mean change in PTA from baseline [1, 10]: −44.9102 dB
- ΔPTA SENS-401 vs placebo [1, 10]: −26.2796 dB
- Mean change in PTA from baseline [1, 11]: −32.4686 dB
- ΔPTA SENS-401 vs placebo [1, 11]: −7.0694 dB
- Mean change in PTA from baseline [1, 12]: −45.9263 dB
- ΔPTA SENS-401 vs placebo [1, 12]: −8.7086 dB
- Mean change in PTA from baseline [1, 13]: −61.7417 dB
- ΔPTA SENS-401 vs placebo [1, 13]: −26.6903 dB
- Mean change in PTA from baseline [1, 14]: −44.6900 dB
- ΔPTA SENS-401 vs placebo [1, 14]: −11.6405 dB
- Mean change in PTA from baseline [1, 15]: −46.6683 dB
- ΔPTA SENS-401 vs placebo [1, 15]: −28.0377 dB
- Mean change in PTA from baseline [1, 16]: −44.8233 dB
- ΔPTA SENS-401 vs placebo [1, 16]: −21.8040 dB
- ΔWRS SENS-401 vs placebo ([2]; day 28, subpopulation PTA at baseline ≥70 dB (of overall study population)): 12.9673%
- ΔWRS SENS-401 vs placebo ([2]; day 28, WRS assessed at 60 dB, subpopulation vertigo at baseline): 35.5287%
- ΔWRS SENS-401 vs placebo ([2]; day 28, WRS at 60 dB, overall study population): 8.8241%
- ΔWRS SENS-401 vs placebo ([2]; day 84, WRS assessed at 60 dB, subpopulation vertigo at baseline): 53.1273%
- change in WRS from baseline (effect vs placebo, in words) ([2]; day 84, WRS at 80 dB, subpopulation vertigo at baseline): significant beneficial effect
